16 molecules from patent publication US9783511B2, “Carbamate benzoxazine propionic acids and acid derivatives for modulation of RORgamma activity and the treatment of disease” (Merck Sharp & Dohme Corp., priority 2013, dated 2017) can be followed below.

pIC50: −log10 of the molar value.

For this experiment, the target named is human RORgammaT-Ligand Binding Domain (LBD) (Homo sapiens (Human), UniProt P51449). As to the kind of experiment: RORγ-Ligand Binding Domain TR-FRET Assay (co-activator peptide SRC1_2 recruitment). The following applies: HIS-tagged RORγ-LBD 3 nM, biotinylated SRC1 LXXLL peptide 100 nM, incubated overnight at 4° C., 665 nm/615 nm ratio. Type of experiment: biochemical. The text has this: Activation of RORgammaT activity can be measured using, e.g., a biochemical TR-FRET assay. In such an assay, interaction of cofactor-derived peptides with human RORgammaT-Ligand Binding Domain (LBD) can be measured.
Sequence of human RORgammaT-Ligand Binding Domain (LBD) (P51449 269-508): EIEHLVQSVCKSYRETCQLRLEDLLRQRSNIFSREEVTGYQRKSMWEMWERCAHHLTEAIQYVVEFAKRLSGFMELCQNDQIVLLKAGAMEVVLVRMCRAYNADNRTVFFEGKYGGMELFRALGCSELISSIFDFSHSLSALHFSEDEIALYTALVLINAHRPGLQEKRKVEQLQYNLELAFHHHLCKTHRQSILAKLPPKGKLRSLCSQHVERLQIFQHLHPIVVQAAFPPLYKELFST
To identify novel antagonists of RORgammaT, an assay was developed which employs the interaction of RORgammaT with its co-activator peptide SRC1_2. […] The RORγ-Ligand Binding Domain TR-FRET Assay was run according to the following protocol.
HIS-tagged RORγ-LBD protein was recombinantly expressed in Escherichia coli. The RORγ-LBD protein was purified by Ni^2+-affinity resin. Purified protein was then diluted in assay buffer (50 mM Tris pH 7.0, 50 mM KCl, 1 mM EDTA, 0.1 mM DTT, 100 μg/mL bovine serum albumin, delipidated) to obtain a RORγ-LBD final concentration of 3 nM.
Compounds to be tested were injected to the 384-well assay plate using Acoustic Droplet Ejection technology by Echo 550 liquid handler (Labcyte, CA).
(Time-resolved FRET reads energy transfer from a long-lived donor to a nearby acceptor.)
Broadly, the pIC50 is −log10 of the IC50, conventionally taken in molar units. In the case of `Cc1ccc(S(=O)(=O)N2C[C@H]([C@@H]3C[C@@H]3C(=O)O)Oc3ccc(NC(=O)OC(C)(C)C(F)(F)F)cc32)cc1` (single isomer, unassigned) [Example 22F, (1S,2S or 1R,2R or 1S,2R or 1R,2S)-2-((S)-4-tosyl-6-((((1,1,1-trifluoro-2-methylpropan-2-yl)oxy)carbonyl)amino)-3,4-dihydro-2H-benzo[b][1,4]oxazin-2-yl)cylcopropanecarboxylic acid], the pIC50 was 7.12.
The result for `CCOc1sc(C2CC2)nc1S(=O)(=O)N1C[C@H](C[C@@H](C)C(=O)O)Oc2ccc(NC(=O)OC(C)(C)C(F)(F)F)cc21` (single isomer, unassigned) [Example 6BP, (R or S)-3-((S)-4-((2-cyclopropyl-5-ethoxythiazol-4-yl)sulfonyl)-6-((((1,1,1-trifluoro-2-methylpropan-2-yl)oxy)carbonyl)amino)-3,4-dihydro-2H-benzo[b][1,4]oxazin-2-yl)-2-methylpropanoic acid] reads 7.57; that for `Cc1nn(C(F)F)cc1S(=O)(=O)N1C[C@H](C[C@@H](C)C(=O)O)Oc2ccc(NC(=O)OC(C)(C)C(F)(F)F)cc21` (single isomer, unassigned) [Example 6BG, (R or S)-3-((S)-4-((1-(difluoromethyl)-3-methyl-1H-pyrazol-4-yl)sulfonyl)-6-((((1,1,1-trifluoro-2-methylpropan-2-yl)oxy)carbonyl)amino)-3,4-dihydro-2H-benzo[b][1,4]oxazin-2-yl)-2-methylpropanoic acid], 7.88; that for `CCOc1sc(CC)nc1S(=O)(=O)N1C[C@H](CCC(=O)O)Oc2ccc(NC(=O)OC(C)(C)C(F)(F)F)cc21` [Example 6CC, 3-[(2S)-4-[(5-ethoxy-2-ethyl-1,3-thiazol-4-yl)sulfonyl]-6-{[(2,2,2-trifluoro-1,1-dimethylethoxy)carbonyl]amino}-3,4-dihydro-2H-1,4-benzoxazin-2-yl]propanoic acid], 7.91.
For `CC(C)(OC(=O)Nc1ccc2c(c1)N(S(=O)(=O)c1ccc(F)c(C(F)(F)F)c1)C[C@H]([C@H]1C[C@H]1C(=O)O)O2)C(F)(F)F` [Example 22A, (1R,2S)-2-((S)-4-((4-fluoro-3-(trifluoromethyl)phenyl)sulfonyl)-6-((((1,1,1-trifluoro-2-methylpropan-2-yl)oxy)carbonyl)amino)-3,4-dihydro-2H-benzo[b][1,4]oxazin-2-yl)cyclopropanecarboxylic acid] the value was 7.65; for `CC(C)(OC(=O)Nc1ccc2c(c1)N(S(=O)(=O)c1ccc3c(c1)CCO3)C[C@H](CCC(=O)O)O2)C(F)(F)F` [Example 6AE, (S)-3-(4-((2,3-dihydrobenzofuran-5-yl)sulfonyl)-6-((((1,1,1-trifluoro-2-methylpropan-2-yl)oxy)carbonyl)amino)-3,4-dihydro-2H-benzo[b][1,4]oxazin-2-yl)propanoic acid], 7.90; for `COc1cncc(S(=O)(=O)N2C[C@H](CCC(=O)O)Oc3ccc(NC(=O)OC(C)(C)C(F)(F)F)cc32)c1` [Example 6BY, 3-[(2S)-4-[(5-methoxypyridin-3-yl)sulfonyl]-6-{[(2,2,2-trifluoro-1,1-dimethylethoxy)carbonyl]amino}-3,4-dihydro-2H-1,4-benzoxazin-2-yl]propanoic acid], 7.57.
The result for `Cc1cc(S(=O)(=O)N2C[C@H](CCC(=O)O)Oc3ccc(NC(=O)OC(C)(C)C(F)(F)F)cc32)c(Cl)cc1F` [Example 6BA, (S)-3-(4-((2-chloro-4-fluoro-5-methylphenyl)sulfonyl)-6-((((1,1,1-trifluoro-2-methylpropan-2-yl)oxy)carbonyl)amino)-3,4-dihydro-2H-benzo[b][1,4]oxazin-2-yl)propanoic acid] reads 8.14; that for `CC(C)(OC(=O)Nc1ccc2c(c1)N(S(=O)(=O)c1cccc(C3CC3)c1)C[C@H](CC1(C(=O)O)CC1)O2)C(F)(F)F` [Example 14B, (S)-1-((4-((3-cyclopropylphenyl)sulfonyl)-6-((((1,1,1-trifluoro-2-methylpropan-2-yl)oxy)carbonyl)amino)-3,4-dihydro-2H-benzo[b][1,4]oxazin-2-yl)methyl)cyclopropanecarboxy-lic acid], 7.76.
As to `Cc1cc(S(=O)(=O)N2C[C@H](CCC(=O)O)Oc3ccc(NC(=O)OC(C)(C)C(F)(F)F)cc32)c(F)cc1F` [Example 6AW, (S)-3-(4-((2,4-difluoro-5-methylphenyl)sulfonyl)-6-((((1,1,1-trifluoro-2-methylpropan-2-yl)oxy)carbonyl)amino)-3,4-dihydro-2H-benzo[b][1,4]oxazin-2-yl)propanoic acid], the pIC50 is 8.11.
For `C[C@H](C[C@H]1CN(S(=O)(=O)c2cccc(OC(F)F)c2)c2cc(NC(=O)OC(C)(C)C(F)(F)F)ccc2O1)C(=O)O` (single isomer, unassigned) [Example 6CM, (S or R)-3-((S)-4-((3-(difluoromethoxy)phenyl)sulfonyl)-6-((((1,1,1-trifluoro-2-methylpropan-2-yl)oxy)carbonyl)amino)-3,4-dihydro-2H-benzo[b][1,4]oxazin-2-yl)-2-methylpropanoic acid] the value was 8.28; for `C[C@@H](C[C@H]1CN(S(=O)(=O)c2ccnc(C(F)(F)F)c2)c2cc(NC(=O)OC(C)(C)C(F)(F)F)ccc2O1)C(=O)O` (single isomer, unassigned) [Example 6DA, (R or S)-2-methyl-3-((S)-6-((((1,1,1-trifluoro-2-methylpropan-2-yl)oxy)carbonyl)amino)-4-((2-(trifluoromethyl)pyridin-4-yl)sulfonyl)-3,4-dihydro-2H-benzo[b][1,4]oxazin-2-yl)propanoic acid], 7.83.
Take `CC(C)(OC(=O)Nc1ccc2c(c1)N(S(=O)(=O)c1cncc(C3CC3)c1)C[C@H](CCC(=O)O)O2)C(F)(F)F` [Example 6BV, 3-[(2S)-4-[(5-cyclopropylpyridin-3-yl)sulfonyl]-6-{[(2,2,2-trifluoro-1,1-dimethylethoxy)carbonyl]amino}-3,4-dihydro-2H-1,4-benzoxazin-2-yl]propanoic acid]: the pIC50 was 8.05.
For `CCOc1nn(CC)cc1S(=O)(=O)N1C[C@H](CCC(=O)O)Oc2c(F)cc(NC(=O)OC(C)(C)C(F)(F)F)cc21` [Example 29D, 3-[(2S)-4-[(3-ethoxy-1-ethyl-1H-pyrazol-4-yl)sulfonyl]-8-fluoro-6-{[(2,2,2-trifluoro-1,1-dimethylethoxy)carbonyl]ami-no}-3,4-dihydro-2H-1,4-benzoxazin-2-yl]propanoic acid] the value was 8.10; for `CC(C)(OC(=O)Nc1cc(F)c2c(c1)N(S(=O)(=O)c1ccc(F)c(C(F)(F)F)c1)C[C@H](CCC(=O)O)O2)C(F)(F)F` [Example 28, (S)-3-(8-fluoro-4-((4-fluoro-3-(trifluoromethyl)phenyl)sulfonyl)-6-((((1,1,1-trifluoro-2-methylpropan-2-yl)oxy)carbonyl)amino)-3,4-dihydro-2H-benzo[b][1,4]oxazin-2-yl)propanoic acid], 7.99; for `COc1cc(S(=O)(=O)N2c3cc(NC(=O)OC(C)(C)C(F)(F)F)ccc3O[C@@H](CC(C)(C)C(=O)O)[C@H]2C)ccc1F` [Example 27B, 3-[(2S,3R)-4-[(4-fluoro-3-methoxyphenyl)sulfonyl]-3-methyl-6-{[(2,2,2-trifluoro-1,1-dimethylethoxy)carbonyl]ami-no}-3,4-dihydro-2H-1,4-benzoxazin-2-yl]-2,2-dimethylpropanoic acid], 7.76.
